According to US4252795A, “N-substituted dimeric cyclopeptide derivatives and preparation thereof” (Ayerst McKenna and Harrison Inc., priority 1978, dated 1981):

Experiments:
Klebsiella pneumoniae = assay: serial broth dilution, growth inhibition; format: cell-based; settings: nutrient broth, incubated at 37° C. for 2 days, examined for presence of growth
Description: (§1) Grove and W. A. Randall in "Assay Methods of Antibiotics", Med. Encycl. Inc., [New York] 955. […] 289.
(§2) For example, by employing a test like the serial broth dilution, see Grove and Randall, cited above, in which dilutions of the compounds of this invention in nutrient broth are inoculated with the microorganisms or fungi, described above, incubated at 37° C. for 2 days, respectively, and examined for the presence of growth, it may be shown that the preferred compounds N'N'-dicyclohexyl-α,α'-diisopropyl-2,5,8,11,14,17-hexaoxo-1,4,7,10,13,16-hexaazacyclooctadecane-1,10-diacetamide, isomer L, (Example 1), N'N'-dicyclohexyl-α,α'-diisopropyl-2,5,8,11,14,17-hexaoxo-1,4,7,10,13,16-hexaazacyclooctadecane-1,10-diacetamide, isomer M, (Example 1), and α,α'-diphenyl-N'N'-dicyclohexyl-2,5,8,11,14,17-hexaoxo-1,4,7,10,13,16-hexaazacyclooctadecane-1,10-diacetamide, isomer L, (Example 1) are able to inhibit growth totally in this system of Klebsiella pneumoniae and Serratia marcescens at a concentration of 100 mcg/ml.

Serratia marcescens = assay: serial broth dilution, growth inhibition; format: cell-based; settings: nutrient broth, incubated at 37° C. for 2 days, examined for presence of growth
Description: as §1, §2

Row | SMILES | concentration able to inhibit growth totally (Klebsiella pneumoniae) [µg/mL] | concentration able to inhibit growth totally (Serratia marcescens) [µg/mL]
1 | CC(C)C(C(=O)NC1CCCCC1)N1CC(=O)NCC(=O)NCC(=O)N(C(C(=O)NC2CCCCC2)C(C)C)CC(=O)NCC(=O)NCC1=O (stereo not drawn) [N,N'-Dicyclohexyl-α,α'-diisopropyl-2,5,8,11,14,17-hexaoxo-1,4,7,10,13,16-hexaazacyclooctadecane-1,10-diacetamide] | 100 | 100
2 | O=C1CNC(=O)CN(C(C(=O)NC2CCCCC2)c2ccccc2)C(=O)CNC(=O)CNC(=O)CN(C(C(=O)NC2CCCCC2)c2ccccc2)C(=O)CN1 (stereo not drawn) [α,α'-diphenyl-N,N'-dicyclohexyl-2,5,8,11,14,17-hexaoxo-1,4,7,10,13,16-hexaazacyclooctadecane-1,10-diacetamide] | 100 | 100
